Experimental data: patent US11850306B2, “Method for drying hydrogel comprising nanofibrillar cellulose and a dried hydrogel comprising nanofibrillar cellulose” (UPM-KYMMENE CORPORATION, priority 2016, dated 2023)
Where “and” joins values, the source holds several entries; their conditions need not be identical. Equal entries are not always repeated. Where two headings read alike, the source gives them in different places.

Columns and labels:
[1] = nitrogen; cited from earlier work
[2] = cited from earlier work
[3] = In vitro release studies: diffusion coefficients of model compounds from NFC hydrogels; format: physicochemical; conditions: for Diffusion coefficient in NFC-hydrogels: pH 7.4, 37° C.
Procedure: (§1) In vitro drug release studies were performed with modified intrinsic dissolution disc dies filled with 1.07 g of formulations with a constant flat surface area of 1.33 cm^2. Discs were placed in 150 ml amber glass vessels on top of a holder. The vessels were filled to a final volume of 70 ml with pH 7.4 phosphate buffered saline (1×DPBS) and kept at 37° C. under constant magnetic stirring (400 rpm) on top of a multi-position magnetic stirrer IKA RT10 (IKA-Werke GmbH & Co KG, Germany). […] All experiments were done in triplicate.
The flow rate was 0.5 ml/min and the injection volume 5 μl. […] During the gradient run the mobile phase consisted of a mixture of acetonitrile and 15 mM phosphate buffer pH 2 in 25:75 ratio at 0-3 min. After 3 min the mobile phase composition was changed to 75:25 ratio. […] For nadolol, the used column was HSS-T3 1.8 μm (2.1×50 mm) (Waters, USA) at 30° C. The flow rate was 0.5 ml/min and the injection volume 5 μl. […] During the gradient run the mobile phase consisted of a mixture of acetonitrile and 15 mM phosphate buffer pH 2 in 10:90 ratio at 0-3 min. After 3 min the mobile phase composition was changed to 50:50 ratio.
200 μl of samples were pipetted into wells of 96-well OptiPlate plates (PerkinElmer, Finland). Excitation wavelength 490 nm, emission wavelength 520 nm and 12 nm bandwidth were used.
For metronidazole, absorbance was measured in 1 cm cell at 320 nm with 12 nm bandwidth against blank.
Sample and reagent were mixed thoroughly with a multi-channel pipet and incubated for 20 minutes at room temperature before absorbance measurement.
Mathematical equations were used for the modelling of diffusion controlled drug release that take into consideration structure of the device, the ratio of initial drug concentration to drug solubility and the device geometry. The diffusion coefficients were calculated by Higuchi equation (1) for small molecules with a presumption that these systems could be described as monolithic dispersions (Equations 1 and 2 below). For large molecules (1 kDa) equations we used to solve Fick's second law of diffusion and diffusion coefficients (2) with a presumption that these systems could be described as monolithic solutions (FIG. 2).
as §1, with “cm2.” for “cm^2.”

[4] = cited from earlier work; for Solubility in aqueous media (intrinsic solubility): 25° C.
[5] = 3% NFC/exp (PEG6000 and trehalose), before freeze drying
[6] = 6.5% NFC/exp (PEG6000 and trehalose), before freeze drying
[7] = FD 3% NFC/exp, freeze dried and redispersed
[8] = FD 6.5% NFC/exp, freeze dried and redispersed

Row | Molecule | Diffusion coefficients for model compounds in different NFC hydrogels ([3]; 3% NFC, no excipients) | Diffusion coefficients for model compounds in different NFC hydrogels [3, 5] | Diffusion coefficients for model compounds in different NFC hydrogels ([3]; 6.5% NFC, no excipients) | Diffusion coefficients for model compounds in different NFC hydrogels [3, 6] | Diffusion coefficients for model compounds in different NFC hydrogels [3, 7] | Diffusion coefficients for model compounds in different NFC hydrogels [3, 8] | Diffusion coefficient in NFC-hydrogels ([3]; NFC hydrogel 11804-3 (3.2%)) | Diffusion coefficient in NFC-hydrogels ([3]; NFC hydrogel 11814-1 (5.7%)) | Diffusion coefficient in NFC-hydrogels ([3]; NFC hydrogel 11814-3 (5.7%)) | Diffusion coefficient in NFC-hydrogels ([3]; NFC hydrogel 11815-3 (6.8%)) | Onset degradation temp Td, N2 [1] [°C] | pKa/pI [2] | Solubility in aqueous media (intrinsic solubility) [4] | Solubility in aqueous media ([4]; pH 7) | Charge at pH 7.0 ([2]; pH 7.0) | Charge of compounds at pH 7.4 ([2]; pH 7.4) | Solubility in aqueous media ([4]; condition not given) [mg/mL]
1 | OC[C@H]1O[C@H](O[C@H]2O[C@H](CO)[C@@H](O)[C@H](O)[C@H]2O)[C@H](O)[C@@H](O)[C@@H]1O [Trehalose, D-(+)-trehalose dihydrate] |  |  |  |  |  |  |  |  |  |  | 230 |  |  |  |  |  | 
2 | Polyethylene glycol 6000 [PEG 6000] |  |  |  |  |  |  |  |  |  |  | 257 |  |  |  |  |  | 
3 | Lysozyme: Lysozyme from hen egg white, 14.7 kDa model compound | 3.53 10^−8 cm^2/s |  | 1.75 10^−8 cm^2/s |  |  |  | 3.53 10^−8 cm^2/s | 1.79 10^−8 cm^2/s | 2.57 10^−8 cm^2/s | 1.75 10^−8 cm^2/s |  |  |  |  |  |  | >10

Now from value to molecule, other results behind:

Row | Diffusion coefficients for model compounds in different NFC hydrogels ([3]; 3% NFC, no excipients) | Diffusion coefficients for model compounds in different NFC hydrogels [3, 5] | Diffusion coefficients for model compounds in different NFC hydrogels ([3]; 6.5% NFC, no excipients) | Diffusion coefficients for model compounds in different NFC hydrogels [3, 6] | Diffusion coefficients for model compounds in different NFC hydrogels [3, 7] | Diffusion coefficients for model compounds in different NFC hydrogels [3, 8] | Diffusion coefficient in NFC-hydrogels ([3]; NFC hydrogel 11804-3 (3.2%)) | Diffusion coefficient in NFC-hydrogels ([3]; NFC hydrogel 11814-1 (5.7%)) | Diffusion coefficient in NFC-hydrogels ([3]; NFC hydrogel 11814-3 (5.7%)) | Diffusion coefficient in NFC-hydrogels ([3]; NFC hydrogel 11815-3 (6.8%)) | Molecule | Onset degradation temp Td, N2 [1] [°C] | pKa/pI [2] | Solubility in aqueous media (intrinsic solubility) [4] | Solubility in aqueous media ([4]; pH 7) | Charge at pH 7.0 ([2]; pH 7.0) | Charge of compounds at pH 7.4 ([2]; pH 7.4) | Solubility in aqueous media ([4]; condition not given) [mg/mL]
4 | 286.24 10^−8 cm^2/s | 292.92 10^−8 cm^2/s | 230.62 10^−8 cm^2/s | 245.04 10^−8 cm^2/s | 296.36 10^−8 cm^2/s | 267.21 10^−8 cm^2/s | 286.24 10^−8 cm^2/s | 273.21 10^−8 cm^2/s | 287.50 10^−8 cm^2/s | 230.62 10^−8 cm^2/s | CC(C)(C)NCC(O)COc1cccc2c1CC(O)C(O)C2 (stereo not drawn) [Nadolol] | 196.2 | 9.28 | 8.3 (25° C.), mg/ml | 8.3 (pH 7) mg/ml |  |  | 
5 | 716.99 10^−8 cm^2/s | 657.41 10^−8 cm^2/s | 617.51 10^−8 cm^2/s | 617.16 10^−8 cm^2/s | 699.10 10^−8 cm^2/s | 660.18 10^−8 cm^2/s | 716.99 10^−8 cm^2/s | 609.51 10^−8 cm^2/s | 551.09 10^−8 cm^2/s | 617.51 10^−8 cm^2/s | Cc1ncc([N+](=O)[O-])n1CCO [Metronidazole] | 160 |  | 10.5 (25° C.), mg/ml and 10.5 mg/ml | 10.5 (pH 7) mg/ml | ø | Metronidazole (ø) | 
6 | 152.62 10^−8 cm^2/s | 147.15 10^−8 cm^2/s | 141.86 10^−8 cm^2/s | 141.20 10^−8 cm^2/s | 129.97 10^−8 cm^2/s | 124.44 10^−8 cm^2/s | 152.62 10^−8 cm^2/s | 131.41 10^−8 cm^2/s | 148.23 10^−8 cm^2/s | 141.86 10^−8 cm^2/s | CC(C(=O)O)c1cccc(C(=O)c2ccccc2)c1 (stereo not drawn) [Ketoprofen] |  |  |  |  |  |  | 
